Results published in patent US20100035793A1, “Modulators” (priority 2005, published 2010).
Non-standard residues stand in square brackets, D forms with d. No end group written: not given here. pY = N[C@@H](Cc1ccc(OP(=O)(O)O)cc1)C(=O)O

Experiments:
STAT 5 = details: peptide present in nuclear extracts; cited from earlier work
Stat3 [1] = biological target: T1, Stat3 (Homo sapiens, UniProt P40763); details: cited from earlier work
Target sequence in this assay (P40763 whole entry, species assumed): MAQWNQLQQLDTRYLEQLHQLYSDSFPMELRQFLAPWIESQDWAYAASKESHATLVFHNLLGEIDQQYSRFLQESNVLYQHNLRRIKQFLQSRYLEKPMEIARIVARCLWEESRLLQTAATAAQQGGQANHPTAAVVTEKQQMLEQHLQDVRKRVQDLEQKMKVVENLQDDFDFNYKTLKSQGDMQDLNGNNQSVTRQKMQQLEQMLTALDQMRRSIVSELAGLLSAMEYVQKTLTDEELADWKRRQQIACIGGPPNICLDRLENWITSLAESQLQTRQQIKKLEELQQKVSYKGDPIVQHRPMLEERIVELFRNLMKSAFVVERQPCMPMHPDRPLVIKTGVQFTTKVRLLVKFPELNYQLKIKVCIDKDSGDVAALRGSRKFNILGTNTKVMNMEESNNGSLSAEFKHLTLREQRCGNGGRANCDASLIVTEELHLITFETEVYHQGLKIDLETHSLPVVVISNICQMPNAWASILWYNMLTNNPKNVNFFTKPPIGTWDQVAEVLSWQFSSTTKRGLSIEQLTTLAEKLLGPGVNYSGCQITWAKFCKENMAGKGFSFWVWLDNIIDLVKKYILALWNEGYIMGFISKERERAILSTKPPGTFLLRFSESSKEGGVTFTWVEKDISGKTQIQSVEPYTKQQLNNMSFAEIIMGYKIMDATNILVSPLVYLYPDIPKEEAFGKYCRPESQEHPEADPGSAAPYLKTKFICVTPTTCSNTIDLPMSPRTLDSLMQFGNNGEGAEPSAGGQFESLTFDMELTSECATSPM

JAK2 = JAK2 (Homo sapiens, UniProt O60674); details: cited from earlier work
Chain of JAK2 (O60674 whole entry, species assumed): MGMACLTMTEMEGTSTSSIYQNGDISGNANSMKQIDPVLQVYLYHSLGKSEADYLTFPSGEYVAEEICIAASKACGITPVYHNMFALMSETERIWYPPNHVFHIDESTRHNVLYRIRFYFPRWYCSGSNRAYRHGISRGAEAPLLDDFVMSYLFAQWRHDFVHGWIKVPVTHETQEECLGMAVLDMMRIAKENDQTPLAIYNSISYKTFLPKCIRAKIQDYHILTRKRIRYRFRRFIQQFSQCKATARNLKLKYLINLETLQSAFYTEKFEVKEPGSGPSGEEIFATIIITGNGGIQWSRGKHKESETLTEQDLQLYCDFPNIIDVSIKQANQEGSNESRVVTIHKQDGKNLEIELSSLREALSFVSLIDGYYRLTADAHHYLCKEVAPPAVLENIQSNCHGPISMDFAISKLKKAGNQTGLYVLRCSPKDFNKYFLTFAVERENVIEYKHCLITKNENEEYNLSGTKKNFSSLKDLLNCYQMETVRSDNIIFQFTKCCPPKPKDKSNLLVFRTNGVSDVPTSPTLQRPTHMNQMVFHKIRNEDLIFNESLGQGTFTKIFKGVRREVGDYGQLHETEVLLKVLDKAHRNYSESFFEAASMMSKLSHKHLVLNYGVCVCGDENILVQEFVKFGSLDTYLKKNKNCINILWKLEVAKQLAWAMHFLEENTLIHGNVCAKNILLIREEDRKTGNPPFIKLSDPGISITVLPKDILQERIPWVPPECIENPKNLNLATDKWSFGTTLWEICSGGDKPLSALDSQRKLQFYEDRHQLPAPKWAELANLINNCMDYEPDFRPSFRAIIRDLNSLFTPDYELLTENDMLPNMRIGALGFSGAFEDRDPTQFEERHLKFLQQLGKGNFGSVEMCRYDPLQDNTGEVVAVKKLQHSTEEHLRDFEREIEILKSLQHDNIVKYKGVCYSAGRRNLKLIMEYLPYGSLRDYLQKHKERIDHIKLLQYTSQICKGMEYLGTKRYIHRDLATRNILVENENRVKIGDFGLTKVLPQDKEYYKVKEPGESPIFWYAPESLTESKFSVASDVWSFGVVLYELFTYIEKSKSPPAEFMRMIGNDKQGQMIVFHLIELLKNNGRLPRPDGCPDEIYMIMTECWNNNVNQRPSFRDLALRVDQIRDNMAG

KF48 keloid fibroblasts [2] = experiment: XTT proliferation assay; assay type: cell-based, human
Excerpt: Inhibition of Stat3 decreases cell proliferation. Enhanced fibroblast proliferation is a characteristic of keloid tissue. In agreement with this, keloid fibroblasts grown in normal culture conditions proliferated faster than normal fibroblasts, as observed in KF48 and KF107 compared to NF2 and NF4 (FIG. 6A). To investigate whether Stat3 is involved in the enhanced keloid fibroblast proliferation, KF48 was infected with retrovirus expressing Stat3 siRNAs, and cell proliferation was examined. […] XTT proliferation assay. Cells seeded at 3,000 cells/well in 96-well plates and grown in normal growth conditions, or infected with retroviral Stat3 siRNAs, were assayed for proliferation using the XrT proliferation kit (Roche) according to the manufacturer's instructions. The readings were taken at 450 nm and referenced against 690 nm, 2 h after the addition of the XrT reagent. Each sample was performed at quadruplicates in two to three independent experiments. Data are presented as mean±SD
Cell proliferation was also investigated by treating KF48 cells with various doses of Cucurbitacin I or with DMSO control, before incubating in normal growth media and examined daily over 4 days. Cucurbitacin I concentration as low as I μM was able to inhibit cell proliferation of KF48 compared to DMSO and untreated control (0 μM), whereas Cucurbitacin I exposure at 5 μM and above seemed to cause cell death (FIG. 6C).

[3] = tested on: A549 human lung carcinoma cells; parameters: dose or concentration left out as unconfirmed; details: Cucurbitacin I for 24 h; cited from earlier work
Stat3 [4] = biological target: T1, Stat3; experiment: Western blot of Stat3 phosphorylation and expression in KF48 treated with Cucurbitacin I; assay type: cell-based; parameters: primary fibroblasts derived from normal skin and keloid tissues were further examined; endogenous in cells; host or cells: KF48 primary keloid fibroblasts
Method: (§1) Inhibition of Stat3 was also evaluated by incubating KF48 for 30 min with various doses of Cucurbitacin I, an inhibitor of Jak2/Stat3 activation (32), or with DMSO alone as a control, followed by further incubation in normal growth media for 48 h. […] Cucurbitacin I was acquired from Galchimia (A Corufia, Spain).
(§2) Western blot. Cells were either harvested in radioimmune precipitation assay (RIPA) buffer (150 mM NaCl, 50 mM Tris-HCl, pH 7.2, 1% deoxycholic acid, 1% Triton X-100, 0.25 mM EDTA, pH 8.0) containing protease inhibitor cocktail (Roche Diagnostics Corporation, Indianapolis, Ind., USA), or lysis buffer containing 150 mM NaCl, 10 mM Tris-HCl, pH 7.4, 0.5% Triton-X-100, 0.5% NP-40, 1 mM EDTA, 0.2 mM sodium vanadate, supplemented with protease inhibitor tablet. Total cell lysates were collected after centrifugation for 10 min at 4° C., and resolved in 7.5% or 10% polyacrylamide gel electrophoresis, and transferred to PVDF membranes (Bio-Rad Laboratories, Hercules, Calif., USA). The membranes were blotted with anti-phosphoTyr705 Stat3 antibody (1:1000 dilution; Cell Signaling, Beverly, Mass., USA) overnight at 4° C. overnight in PBS containing 1% BSA and 0.1% Tween 20, washed with PBS containing 0.2% Tween 20, and incubated with secondary anti-rabbit IgG antibody (1:2000 dilution; Sigma, Saint Louis, Mo., USA) for 1 h at room temperature, washed with PBS containing 0.2% Tween 20, followed by enhanced chemiluminescence (Amersham Biosciences, Buckinghamshire, UK) or Lumi-Light (Roche Diagnostics Corporation, Indianapolis, USA), and autoradiography. The membranes were stripped with Restore Western Blotting Stripping Buffer (Pierce, Rockford, Ill., USA) according to manufacturer's instructions and reblotted with anti-phosphoSer727 Stat3 (1:1000 dilution; Cell Signaling, Beverly, Mass., USA) and secondary anti-mouse IgG antibody (1:2000 dilution; Sigma, Saint Louis, Mo., USA). The stripping and reblotting procedure was repeated with monoclonal anti-Stat3 (1:1000 dilution; BD Transduction Laboratories), polyclonal anti-actin (1:1000 dilution; Sigma) and monoclonal anti-collagen antibody (1:1000 dilution; MONOSAN).
Target sequence in this assay (P40763 whole entry): as the sequence (P40763 whole entry, species assumed) above

A549 tumor = details: nude mice; cited from earlier work
collagen = experiment: Western blot of collagen production in KF48 keloid fibroblasts; assay type: cell-based, human; details: KF48, Cucurbitacin I 30 min then 48 h in growth media, FIG. 5B
Method: These vectors containing Stat3 siRNA targets and empty vector were transfected into 293T-based Phoenix-Ampho packaging cell line for 7-9 h, and the amphotropic retroviruses were harvested 48 h later, pelleted to remove nonadherent cells and cellular debris, and filtered through a […] cellulose acetate membrane. The keloid fibroblasts were infected overnight in the presence of 4 μg/ml polybrene, and replaced with fresh 10% FBS/DMEM the following day. Cells were assayed for Western blot 48 h after infection, or for XTT cell proliferation, or for migration assay which was performed by replating the cells into 8 μM Transwell membrane and fixed 24 h later as described above.
as §1
as §2, with “The membranes were stripped with Restore Western Blotting Stripping Buffer (Pierce, Rockford, Ill., USA) according to manufacturer's instructions and reblotted with anti-phosphoSer727 Stat3 (1:1000 dilution; Cell Signaling, Beverly, Mass., USA) and secondary anti-mouse IgG antibody (1:2000 dilution; Sigma, Saint Louis, Mo., USA). The stripping and reblotting procedure was repeated with monoclonal anti-Stat3 (1:1000 dilution; BD Transduction Laboratories), polyclonal anti-actin (1:1000 dilution; Sigma) and monoclonal anti-collagen antibody (1:1000 dilution; MONOSAN).” left out
Methods of assessing polypeptides regulated by STAT Collagen may be regulated by STAT 3 activation. monoclonal anti-human collagen I, II, III Was purchased from MONOSAN (Uden, Netherlands). […] These were detected via western blot as described above.

Stat3 [5] = biological target: T1, Stat3; details: cited from earlier work; remark: listed apart in the source
Target sequence in this assay (P40763 whole entry, species assumed): as above

KF48 keloid fibroblasts [6] = experiment: Scratch-wound migration assay; assay type: cell-based, human
Method: Cell migration in keloidflbroblasts is inhibited by Stat3 siRNA and Cucurbitacin I. To examine the role of Stat3 in cell migration of skin fibroblasts, KF48 cells were infected with retrovirus expressing Stat3 siRNAs and scratch assays were performed as previously described. […] Three non-overlapping fields were acquired, and graphically illustrated as mean±SD in FIG. 8B. Transmembrane cell migration assays were also performed in triplicates as described earlier, and quantified as mean±SD (FIG. 8C). […] The right panels in FIG. 8B and 8C depict immunoblots of Stat3 and actin to show the efficiencies of inhibition by the Stat3 siRNAs.
The role of Stat3 in cell migration was also examined using Cucurbitacin I in the scratch assay. KF48 cells were first incubated with 10 μg/ml mitomycin C for 2 h, before treating for 30 min with DMSO or 1 μM Cucurbitacin I. The scratch-wound was performed, followed by further incubation in normal growth media. Pictures were taken at 0 h, 22 h and 48 h after wounding.
Migration assay. For migration assay using the scratch method, cells were grown to confluence and incubated with 10 μg/ml mitomycin C for 2 h, before a scratch wound was introduced using a yellow pipette tip. Cells were further incubated in normal growth media and pictures were taken at 0 h, 14 h, 15 h, 22 h, or 48 h after wounding. Three non-overlapping fields were captured by Axiovert 135 microscope from Zeiss and cells migrated into the wound site were counted and presented as mean±SD.

[7] = KF48, 30 min treatment then 48 h in growth media, FIG. 5B

PY*LKTK: Stat3 SH2 domain-binding phosphopeptide, Y* represents phosphotyrosine (P[pY]LKTK; UniProt P40763 704-709, looked up, fragment)
levels of DNA binding activities of STAT 5 (STAT 5): no effect
STAT 3 biochemical activity and biological function (Stat3 [1]): inhibit
levels of DNA binding activities of STAT 3 (Stat3 [1]; peptide present in nuclear extracts): significant reduction

CC(C)(O)/C=C/C(=O)[C@](C)(O)[C@H]1[C@H](O)C[C@@]2(C)[C@@H]3CC=C4[C@@H](C=C(O)C(=O)C4(C)C)[C@]3(C)C(=O)C[C@]12C [Cucurbitacin I]
inhibition of activation of JAK2 (JAK2): inhibit
potency on pJak2 relative to pSTAT 3 (JAK2): more potent inhibitor of pJak2 than pSTAT 3
exposure that seemed to cause cell death (KF48 keloid fibroblasts [2]; KF48, FIG. 6C): ≥ 5 µM
concentration as low as, able to inhibit cell proliferation (KF48 keloid fibroblasts [2]; KF48, examined daily over 4 days, vs DMSO and untreated): 1 µM
observations at higher doses (KF48 keloid fibroblasts [2]; higher doses, FIGS. 6C and 8D): cell morphology changes and the beginning of some cell death
apoptosis [3]: 9.8%
tumor cell death [3]: 33%
effective concentration as low as (inhibition of pY705 Stat3, pS727 Stat3 and collagen production) (Stat3 [4]; KF48, 30 min treatment then 48 h): 1 μM
Stat3 expression (Stat3 [4]; KF48, 30 min treatment then 48 h, FIG. 5B): dose-dependent decrease
inhibition of pS727 Stat3 (Stat3 [4]; [7]): dose-dependent inhibition
inhibition of pY705 Stat3 (Stat3 [4]; [7]): dose-dependent inhibition
inhibition of A549 tumor growth (A549 tumor): 55.4%
inhibition of collagen production (collagen): dose-dependent inhibition
inhibition of activation of STAT 3 (Stat3 [5]): inhibit
cell migration at 22 h (KF48 keloid fibroblasts [6]; 1 μM for 30 min, 22 h after wounding, vs DMSO, P<0.001): significant reduction in cell migration
cell migration at 48 h (KF48 keloid fibroblasts [6]; 1 μM for 30 min, 48 h after wounding, vs DMSO): delayed migration
migration of KF48, scratch assay (KF48 keloid fibroblasts [6]; 1 μM for 30 min, compared to DMSO control, FIG. 8D): decelerated the migration
concentration as low as, effective in decreasing rate of migration to that of normal fibroblasts (KF48 keloid fibroblasts [6]; keloid fibroblasts): 1 µM
